# Experimental data published in patent US20180028477A1, “TREATMENT OF CARDIAC REMODELING AND OTHER HEART CONDITIONS” (C & C BIOPHARMA, LLC, priority 2013, published 2018).
# “And” between values parts separate entries of the source, which are not always exact repeats. Equal values may be shown once. “Also recorded” adds a separate entry of the source.
# What was measured:
# [1] = Tolerability in mice, daily dosing for four weeks; type: in vivo; settings: 100 mg/Kg daily for four weeks
# [2] = test system: cardiac hypertrophy induced by TAC in C57/BL/6 mice; assay: TAC 21 days: cardiac mass, geometry, wall thickness, myocyte size (Example 4); type: in vivo; settings: 21 days after TAC
# Description: (§1) The effects of 8MI on hypertrophy in a model of moderate pressure overload were tested further (FIGS. 5A-5E). 8MI or its vehicle (DMSO) was administered over a range of concentrations immediately prior to and for 21 days following transverse aortic coarctation (TAC). All experiments were performed on 2-3 month old wild type C57/BL/6 mice. Cardiac hypertrophy was induced by TAC as described in Wei et. al. 2008. Pressure gradients induced by TAC were evaluated postoperatively by pulsed-wave Doppler echocardiography to confirm equivalent gradients in all animals (45±5 mmHg). 8MI was delivered via tail vein injection one day prior to surgical intervention and then daily for 21 days. Blood samples were obtained at sacrifice on day 21 after surgery, and serum was frozen at […] until analysis
# Masson's Trichrome was used to visualize cardiac four-chamber anatomy. Paraffin embedded sections were used for staining (FIG. 5B). Representative wheat germ agglutinin (WGA)-stained sections of myocardium from the mice were prepared. For echocardiography (FIG. 5C), mice were placed under anesthesia with 40 mg/kg ketamine and 5 mg/kg xylocaine and secured in a supine position. Mice were evaluated using […] transducer on a Visual Sonics 770 High Resolution Imaging System. B-mode in the short and long axis view of the ventricle was used to evaluate wall motion defects of ventricle and M-mode in long axis view used for the interventricular septal thickness, posterior wall thickness and the left ventricular dimensions in systole and diastole.
# Hematoxylin and Eosin (HE) and FITC conjugated WGA (from Invitrogen) were used to evaluate myocardial cell size (FIGS. 5D and 5E). The sizes of cells from at least 4 myocardial sections from 3 mice per condition were measured (FIG. 5E). WGA samples were counterstained with DAPI and images were merged from the DAPI and FITC channels.
# [3] = test system: ventricular fibrosis after TAC in mice; assay: TAC 21 days: ventricular fibrosis, Masson's Trichrome (Example 5); type: in vivo; settings: 21 days after TAC
# Excerpt: Using cardiac tissue samples obtained from the same mice treated under the experimental conditions described in Example 4, Masson's Trichrome was used to stain fibrotic tissue (FIG. 6A). Fibrotic area was quantified and expressed relative to the total tissue area (FIG. 6B). Ventricular fibrosis was prominent in mice 21 days after TAC, but not in sham-operated mice (FIGS. 6A and 6B).
# [4] = Serum chemistries in mice subjected to TAC and treated with 8MI (Example 6); type: in vivo; settings: for ALT / BUN / Calcium / Creatinine / Glucose / Total Protein: serum, TAC
# Description: as §1
# Prior to sacrifice, serum was extracted from the blood of the mice treated as described in Example 4.
# GATA4 = GATA4 acetylation in myocardial lysates, immunoprecipitation/Western (Example 9); type: in vivo; settings: TAC-operated mice, same conditions
# Description: Acetyl-MEF2 and acetyl-GATA4 were determined as described in Example 9 in myocardial lysates of TAC- or sham-operated mice treated with the indicated doses of 8MI, or its vehicle (0), as indicated. […] MEF2 acetylation is increased by TAC and reduced by 8MI. Myocardial lysates were immunoprecipitated with either anti-pan MEF2 or GATA4 antibodies, and probed with antibodies against MEF2, GATA4 or acetyl-lysine (control). The quantified data shown in FIG. 9 is from 3 mice per group and normalized to total acetyl-lysine (western blots are not shown).
# MEF2 acetylation was determined in myocardial tissue from sham- and TAC-operated mice in the presence of vehicle or 8MI, under the experimental conditions described in Example 4. Protein samples were collected in RIPA (Sigma). […] of protein samples were incubated with 5 μg of acetyl lysine or GATA4 antibodies (Upstate, Charlottesville, Va.) or MEF2 antibody (Santa Cruz Biotechnology, Santa Cruz, Calif.) (5 μg). The immune-complexes were captured using TrueBlot sepharose beads and subjected to Western analysis. The immune complexes were resolved on SDS-PAGE and transferred to nitrocellulose membranes. Membranes were blocked with 5% milk in 0.5% TBS-T for 1 hour at room temperature followed by incubation in primary antibody at appropriate dilutions overnight. […]
# [5] = test system: myocyte apoptosis during TAC; assay: Myocyte apoptosis in myocardial tissue after TAC, TUNEL assay (Example 10); type: in vivo, mice
# Excerpt: In parallel samples from the experiment described in Example 4, apoptosis was quantitated in myocardial tissue from sham- and TAC-operated mice in the presence of vehicle or 8MI. Apoptosis was detected following recommended protocol for the commercially available terminal deoxynucleotidyl transferase-mediated dUTP nick-end labeling (TUNEL) assay kit (Cardiotacs, Trevigne, Gaithersburg, Md.).
# [6] = 8MI 5 mg/kg, individual mice #7-9
# [7] = 8MI 20 mg/kg, individual mice #10-12
# [8] = 8MI 40 mg/kg, individual mice #13-15
structure (smiles),measurement,setting,value
Nc1ccccc1NC(=O)CCCCCC(=O)Nc1cccc(Br)c1 [8MI],signs of kidney or liver damage or other adverse effects,[1],no sign of kidney or liver damage or other adverse effects; also recorded: without any signs of kidney or liver disease or other adverse effects
same,effect on heart weight in comparison to previously published results for TSA,[2],significantly superior effect
same,reduction of myocyte cross sectional area in comparison to previously published results for TSA,[2],significantly superior effect
same,HW/TL at the highest dose,[2]; 40 mg/kg,normal levels
same,TAC-induced increase of myocyte cross-sectional area / myocyte size,[2]; WGA-stained sections,effectively eliminated this 2.2-fold increase; also recorded: normalization of myocyte size
same,remodeling of the myocardium (four-chamber sections),[2]; dose-dependent,prevented remodeling of the myocardium; also recorded: normalization of cardiac geometry
same,increase of echocardiographic wall thickness,[2]; highest dose of 8MI (vehicle 35.9%±1.0%),6.9%±1.4%
same,echocardiographic posterior wall thickness,[2]; indicated doses,normalization of echocardiographic posterior wall thickness
same,TAC-induced increase of heart weight (HW/TL),"[2]; indicated doses up to 40 mg/kg, tail vein daily",blunted the increase of heart weight in a dose-dependent manner; also recorded: normalization of cardiac mass
same,fibrotic response (fibrotic area relative to total tissue area),[3]; dose range,significantly reduced in a dose-dependent manner; also recorded: reduces fibrosis
same,fibrotic response (fibrotic area relative to total tissue area) at the highest dosage,[3]; highest dosage,eliminated
same,tolerability from serum chemistries,"[4]; TAC mice, 5-40 mg/kg, 21 days",well tolerated
same,mice with significant renal and/or hepatic dysfunction induced by TAC,[4]; mice receiving any dose of 8MI (control: 2 out of 3),1 out of 9
same,ALT,[4]; [6],47 U/L and 53 U/L and 58 U/L
same,BUN,[4]; [6],26 mg/dL and 21 mg/dL and 25 mg/dL
same,Calcium,[4]; [6],11.7 mg/dL and 9.7 mg/dL and 11 mg/dL
same,Creatinine,[4]; [6],0.2 mg/dL
same,Glucose,[4]; [6],375 mg/dL and 158 mg/dL and 294 mg/dL
same,Total Protein,[4]; [6],5.6 g/dL and 5.8 g/dL and 5.4 g/dL
same,ALT,[4]; [7],51 U/L and 73 U/L and 57 U/L
same,BUN,[4]; [7],21 mg/dL and 19 mg/dL and 28 mg/dL
same,Calcium,[4]; [7],9.9 mg/dL and 10.3 mg/dL and 11.1 mg/dL
same,Creatinine,[4]; [7],0.2 mg/dL
same,Glucose,[4]; [7],224 mg/dL and 177 mg/dL and 326 mg/dL
same,Total Protein,[4]; [7],5.3 g/dL and 5.6 g/dL and 6.0 g/dL
same,ALT,[4]; [8],56 U/L and 308 U/L and 60 U/L
same,BUN,[4]; [8],21 mg/dL and 26 mg/dL and 23 mg/dL
same,Calcium,[4]; [8],10.6 mg/dL and 8.7 mg/dL and 10.1 mg/dL
same,Creatinine,[4]; [8],0.3 mg/dL (2×) and 0.6 mg/dL
same,Glucose,[4]; [8],455 mg/dL and 140 mg/dL and 252 mg/dL
same,Total Protein,[4]; [8],6.2 g/dL and 5.5 g/dL and 5.7 g/dL
same,total and Ac-GATA4 levels,GATA4,no significant change
same,apoptosis in TAC-operated mice at the highest dose,[5]; 40 mg/kg,reduced to approximately the same level of apoptosis observed for the sham-operated mice
same,apoptosis in TAC-operated mice,[5]; dose range,reduced in TAC-operated mice by 8MI in a dose-dependent manner; also recorded: prevented myocyte apoptosis during TAC in a dose dependent manner
